In test [1] the target is T1, ROCK2 (Homo sapiens, UniProt O75116).
T1 construct: T7 phage fusion (kinase-tagged phage) or DNA tag for qPCR detection
Kind of test: ROCK2 kinase binding affinity, DiscoverX KINOMEscan KdELECT. The conditions noted are these: for ROCK2 Selectivity: selectivity for ROCK2 over ROCK1 from Kd. As for the experimental part: (§1) 1. ROCK1 and ROCK2 kinase assays: The ROCK1 and ROCK2 kinase binding affinities of compounds in this disclosure were determined by DiscoverX's KINOMEscan™ KdELECT technology (https://www.discoverx.com/kinomescan-elect-kinase-screening-and-profiling-services): Kinase-tagged T7 phage strains were prepared in an E. coli host derived from the BL21 strain. E. coli were grown to log-phase and infected with T7 phage and incubated with shaking at 32° C. until lysis. The lysates were centrifuged and filtered to remove cell debris. The remaining kinases were produced in HEK-293 cells and subsequently tagged with DNA for qPCR detection. […] The liganded beads were blocked with excess biotin and washed with blocking buffer (SeaBlock (Pierce), 1% BSA, 0.05% Tween 20, 1 mM DTT) to remove unbound ligand and to reduce nonspecific binding. […] Kds were determined using an 11-point 3-fold compound dilution series with three DMSO control points. […] The compounds were then diluted directly into the assays such that the final concentration of DMSO was 0.9%. All reactions performed in polypropylene 384-well plate. Each was a final volume of 0.02 ml. […] The kinase concentration in the eluates was measured by qPCR.

In test [2] the target is T2, ROCK1 (Homo sapiens, UniProt Q13464).
T2 construct: T7 phage fusion (kinase-tagged phage) or DNA tag for qPCR detection
T2 sequence (Q13464 whole entry, the tested form may be a part): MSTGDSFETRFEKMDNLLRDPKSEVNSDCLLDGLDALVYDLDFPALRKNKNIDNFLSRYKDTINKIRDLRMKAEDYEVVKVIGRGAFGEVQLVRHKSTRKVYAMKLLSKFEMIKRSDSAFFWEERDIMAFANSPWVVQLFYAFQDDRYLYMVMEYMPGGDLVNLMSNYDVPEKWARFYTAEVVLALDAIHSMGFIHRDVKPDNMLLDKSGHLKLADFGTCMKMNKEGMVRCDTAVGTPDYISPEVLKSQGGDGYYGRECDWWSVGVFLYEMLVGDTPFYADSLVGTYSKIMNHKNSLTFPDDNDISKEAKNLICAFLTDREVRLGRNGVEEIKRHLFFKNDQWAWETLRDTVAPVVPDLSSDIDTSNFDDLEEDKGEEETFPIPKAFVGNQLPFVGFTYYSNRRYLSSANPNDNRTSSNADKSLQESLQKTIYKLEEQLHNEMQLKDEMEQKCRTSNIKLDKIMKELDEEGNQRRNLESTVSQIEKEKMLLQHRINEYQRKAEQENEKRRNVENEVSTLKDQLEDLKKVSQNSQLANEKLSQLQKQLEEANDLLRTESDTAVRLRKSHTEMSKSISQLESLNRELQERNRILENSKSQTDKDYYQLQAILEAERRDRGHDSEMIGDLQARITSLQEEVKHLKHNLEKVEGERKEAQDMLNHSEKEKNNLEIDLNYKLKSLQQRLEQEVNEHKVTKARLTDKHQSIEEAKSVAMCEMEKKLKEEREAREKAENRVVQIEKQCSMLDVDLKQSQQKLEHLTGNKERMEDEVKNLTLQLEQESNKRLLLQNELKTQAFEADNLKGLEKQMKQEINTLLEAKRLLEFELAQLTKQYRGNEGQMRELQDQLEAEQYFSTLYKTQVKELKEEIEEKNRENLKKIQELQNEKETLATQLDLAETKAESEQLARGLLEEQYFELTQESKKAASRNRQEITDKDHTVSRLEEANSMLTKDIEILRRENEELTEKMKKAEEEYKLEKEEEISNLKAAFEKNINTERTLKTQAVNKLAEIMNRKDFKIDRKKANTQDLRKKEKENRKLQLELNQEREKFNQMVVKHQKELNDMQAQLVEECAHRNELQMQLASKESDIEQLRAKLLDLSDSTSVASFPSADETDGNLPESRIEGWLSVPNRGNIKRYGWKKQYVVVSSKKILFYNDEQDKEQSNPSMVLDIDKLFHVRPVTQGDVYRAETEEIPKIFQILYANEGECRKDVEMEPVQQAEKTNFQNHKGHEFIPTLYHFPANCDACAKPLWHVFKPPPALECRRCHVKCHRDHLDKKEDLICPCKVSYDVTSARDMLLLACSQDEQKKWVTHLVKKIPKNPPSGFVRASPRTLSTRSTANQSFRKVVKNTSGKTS
Kind of test: ROCK1 kinase binding affinity, DiscoverX KINOMEscan KdELECT. The note with it: 11-point 3-fold dilution. As for the experimental part:
as §1

[3] abbreviates: KINOMEscan KdELECT, 11-point 3-fold dilution, read-out: Kd (μM) ROCK2.

Where two headings read alike, the source gives them in different places.

Data on 23 compounds can be found in patent US20230295131A1, “INHIBITORS OF RHO-ASSOCIATED COILED-COIL KINASE” (Angion Biomedica Corp., priority 2020, published 2023).

T1 sequence (O75116 whole entry, the tested form may be a part): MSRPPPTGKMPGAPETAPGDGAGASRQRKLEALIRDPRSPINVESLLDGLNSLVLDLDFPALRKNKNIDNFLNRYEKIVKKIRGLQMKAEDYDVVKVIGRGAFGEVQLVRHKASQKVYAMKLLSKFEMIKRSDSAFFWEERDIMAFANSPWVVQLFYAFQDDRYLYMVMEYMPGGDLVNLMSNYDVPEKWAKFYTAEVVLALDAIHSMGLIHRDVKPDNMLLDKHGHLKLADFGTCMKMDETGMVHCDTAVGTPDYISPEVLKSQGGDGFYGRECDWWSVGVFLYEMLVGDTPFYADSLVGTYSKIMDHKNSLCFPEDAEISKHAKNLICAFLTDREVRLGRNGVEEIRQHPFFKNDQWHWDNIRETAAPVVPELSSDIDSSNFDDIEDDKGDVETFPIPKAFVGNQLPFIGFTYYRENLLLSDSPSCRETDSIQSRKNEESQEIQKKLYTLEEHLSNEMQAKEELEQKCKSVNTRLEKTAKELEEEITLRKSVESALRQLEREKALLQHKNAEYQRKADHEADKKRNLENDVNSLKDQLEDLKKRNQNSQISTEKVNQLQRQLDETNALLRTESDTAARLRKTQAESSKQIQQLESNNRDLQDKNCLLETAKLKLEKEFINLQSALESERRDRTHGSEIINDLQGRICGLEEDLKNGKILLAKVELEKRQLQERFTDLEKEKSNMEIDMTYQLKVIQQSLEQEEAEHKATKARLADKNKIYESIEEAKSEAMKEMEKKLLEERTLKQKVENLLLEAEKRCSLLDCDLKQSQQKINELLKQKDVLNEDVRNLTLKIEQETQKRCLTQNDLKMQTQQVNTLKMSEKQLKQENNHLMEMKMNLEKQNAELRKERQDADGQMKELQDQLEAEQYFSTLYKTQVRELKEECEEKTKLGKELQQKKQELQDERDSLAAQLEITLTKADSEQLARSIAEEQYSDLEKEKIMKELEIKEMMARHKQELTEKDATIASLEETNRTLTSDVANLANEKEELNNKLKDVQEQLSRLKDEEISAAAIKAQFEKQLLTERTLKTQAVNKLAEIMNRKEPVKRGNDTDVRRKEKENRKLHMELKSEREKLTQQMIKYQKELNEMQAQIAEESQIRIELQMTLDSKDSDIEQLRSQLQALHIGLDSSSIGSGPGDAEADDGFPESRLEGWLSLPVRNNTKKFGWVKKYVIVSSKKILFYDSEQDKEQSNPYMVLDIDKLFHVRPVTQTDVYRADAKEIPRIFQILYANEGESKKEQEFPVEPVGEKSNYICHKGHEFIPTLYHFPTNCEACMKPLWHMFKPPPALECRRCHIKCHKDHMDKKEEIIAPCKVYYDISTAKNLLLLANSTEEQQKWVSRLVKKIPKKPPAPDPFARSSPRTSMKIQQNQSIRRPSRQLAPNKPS

Usually Kd stands for the constant that tells how readily two partners part at equilibrium. For the compound `O=C(CNc1nccc(-c2nccc(C#Cc3ccc4[nH]ncc4c3)n2)n1)N1CCCC1` [Ex. 52, 2-((4-((1H-Indazol-5-yl)ethynyl)-[2,4′-bipyrimidin]-2′-yl)amino)-1-(pyrrolidin-1-yl)ethanone], the equilibrium dissociation constant (Kd) is < 0.01 µM in test [1] (setting [3]) and 0.1 to 0.99 µM in test [2]. Also, the “ROCK2 Selectivity” value in test [1] is “** (50 to 150-fold selectivity for ROCK2)”.

In the case of `O[C@H]1CC[C@@H](Nc2nccc(-c3nccc(C#Cc4ccc5[nH]ncc5c4)n3)n2)C1` [Ex. 82, (1S,3R)-3-((4-((1H-Indazol-5-yl)ethynyl)-[2,4′-bipyrimidin]-2′-yl)amino)cyclopentanol], the Kd in test [1] (setting [3]) was < 0.01 µM; in test [2], 0.1 to 0.99 µM. For the same compound, the “ROCK2 Selectivity” value in test [1] was “**** (>500-fold selectivity for ROCK2)”.

For `Fc1cccc(CNc2nccc(-c3nccc(C#Cc4ccc5[nH]ncc5c4)n3)n2)n1` [Ex. 32, 4-((1H-Indazol-5-yl)ethynyl)-N-((6-fluoropyridin-2-yl)methyl)-[2,4′-bipyrimidin]-2′-amine], the Kd was in the range of 0.01 to 0.099 µM in test [1] (setting [3]) and 1 to 9.9 µM in test [2]. In test [1], the “ROCK2 Selectivity” value was “** (50 to 150-fold selectivity for ROCK2)”.

Consider `CN(C)C(=O)CNc1nccc(-c2nccc(C#Cc3ccc4[nH]ncc4c3)n2)n1` [Ex. 19, 2-((4-((1H-Indazol-5-yl)ethynyl)-[2,4′-bipyrimidin]-2′-yl)amino)-N,N-dimethylacetamide], for which the dissociation constant (Kd) in test [1] (setting [3]) lay in the range of 0.01 to 0.099 µM; in test [2], 0.1 to 0.99 µM. Moreover, the “ROCK2 Selectivity” value in test [1] is recorded as “** (50 to 150-fold selectivity for ROCK2)”.

Take `Fc1ccccc1CNc1nccc(-c2nccc(C#Cc3ccc4[nH]ncc4c3)n2)n1` [Ex. 15, 4-((1H-Indazol-5-yl)ethynyl)-N-(2-fluorobenzyl)-[2,4′-bipyrimidin]-2′-amine]: the values for the Kd in test [1] (setting [3]) and in test [2] were 0.01 to 0.099 µM and 10 to 100 µM, respectively. In addition, the “ROCK2 Selectivity” value in test [1] is on record as “*** (151 to 500-fold selectivity for ROCK2)”.

For `FC(F)(F)c1ccc(CNc2nccc(-c3nccc(C#Cc4ccc5[nH]ncc5c4)n3)n2)nc1` [Ex. 48, 4-((1H-Indazol-5-yl)ethynyl)-N-((5-(trifluoromethyl)pyridin-2-yl)methyl)-[2,4′-bipyrimidin]-2′-amine], the Kd in test [1] (setting [3]) was < 0.01 µM; in test [2], 0.1 to 0.99 µM. Also, in test [1], the “ROCK2 Selectivity” value was “** (50 to 150-fold selectivity for ROCK2)”.

With `Fc1ncccc1CNc1nccc(-c2nccc(C#Cc3ccc4[nH]nc(F)c4c3)n2)n1` [Ex. 43, 4-((3-Fluoro-1H-indazol-5-yl)ethynyl)-N-((2-fluoropyridin-3-yl)methyl)-[2,4′-bipyrimidin]-2′-amine], the dissociation constant Kd in test [1] (setting [3]) is 0.01 to 0.099 µM; in test [2], 10 to 100 µM. Also, the “ROCK2 Selectivity” value in test [1] is “*** (151 to 500-fold selectivity for ROCK2)”.

With `O[C@H]1CC[C@@H](Nc2nccc(-c3nccc(C#Cc4ccc5cncn5c4)n3)n2)CC1` [Ex. 96, (1s,4s)-4-((4-(Imidazo[1,5-a]pyridin-6-ylethynyl)-[2,4′-bipyrimidin]-2′-yl)amino)cyclohexanol], the values for the equilibrium dissociation constant (Kd) in test [1] (setting [3]) and in test [2] were 0.01 to 0.099 µM and 10 to 100 µM, respectively. Further, the “ROCK2 Selectivity” value in test [1] is given as “** (50 to 150-fold selectivity for ROCK2)”.

`COc1cc(F)ccc1CNc1nccc(-c2nccc(C#Cc3ccc4[nH]ncc4c3)n2)n1` [Ex. 12, 4-((1H-Indazol-5-yl)ethynyl)-N-(4-fluoro-2-methoxybenzyl)-[2,4′-bipyrimidin]-2′-amine]: the Kd lay within 0.01 to 0.099 µM in test [1] (setting [3]) and 1 to 9.9 µM in test [2]. For the same compound, the “ROCK2 Selectivity” value in test [1] was “*** (151 to 500-fold selectivity for ROCK2)”.

Take `Clc1ccc(CNc2nccc(-c3nccc(C#Cc4ccc5[nH]ncc5c4)n3)n2)nc1` [Ex. 16, 4-((1H-Indazol-5-yl)ethynyl)-N-((5-chloropyridin-2-yl)methyl)-[2,4′-bipyrimidin]-2′-amine]: the dissociation constant Kd in test [1] (setting [3]) was < 0.01 µM; in test [2], 0.1 to 0.99 µM. Besides, in test [1], the “ROCK2 Selectivity” value is listed as “* (<50-fold selectivity for ROCK2)”.

As to `O=S1(=O)CCC(CNc2nccc(-c3nccc(C#Cc4ccc5[nH]ncc5c4)n3)n2)CC1` [Ex. 85, 4-(((4-((1H-Indazol-5-yl)ethynyl)-[2,4′-bipyrimidin]-2′-yl)amino)methyl)tetrahydro-2H-thiopyran 1,1-dioxide], the Kd in test [1] (setting [3]) is < 0.01 µM; in test [2] it was 1 to 9.9 µM. The “ROCK2 Selectivity” value in test [1] is recorded as “*** (151 to 500-fold selectivity for ROCK2)”.

`O=S1(=O)CC[C@@H](Nc2nccc(-c3nccc(C#Cc4ccc5[nH]ncc5c4)n3)n2)C1` [Ex. 88, (R)-3-((4-((1H-Indazol-5-yl)ethynyl)-[2,4′-bipyrimidin]-2′-yl)amino)tetrahydrothiophene 1,1-dioxide]: the Kd is 0.01 to 0.099 µM in test [1] (setting [3]) and 0.1 to 0.99 µM in test [2]. Also, in test [1], the “ROCK2 Selectivity” value is given as “* (<50-fold selectivity for ROCK2)”.

`Fc1cc(C#Cc2ccnc(-c3ccnc(NCC4CCCO4)n3)n2)cc2cn[nH]c12` (stereo not drawn) [Ex. 49, 4-((7-Fluoro-1H-indazol-5-yl)ethynyl)-N-((tetrahydrofuran-2-yl)methyl)-[2,4′-bipyrimidin]-2′-amine]: the values for the equilibrium dissociation constant (Kd) in test [1] (setting [3]) and in test [2] were < 0.01 µM and 1 to 9.9 µM, respectively. Moreover, the “ROCK2 Selectivity” value in test [1] is reported as “*** (151 to 500-fold selectivity for ROCK2)”.

Take `COc1ccnc(CNc2nccc(-c3nccc(C#Cc4ccc5[nH]ncc5c4)n3)n2)c1` [Ex. 11, 4-((1H-Indazol-5-yl)ethynyl)-N-((4-methoxypyridin-2-yl)methyl)-[2,4′-bipyrimidin]-2′-amine]: the dissociation constant Kd in test [1] (setting [3]) lay in the range of 0.01 to 0.099 µM; in test [2] it was 0.1 to 0.99 µM. In addition, the “ROCK2 Selectivity” value in test [1] is recorded as “** (50 to 150-fold selectivity for ROCK2)”.

For `Fc1cc(CNc2nccc(-c3nccc(C#Cc4ccc5[nH]nc(F)c5c4)n3)n2)ccn1` [Ex. 61, 4-((3-Fluoro-1H-indazol-5-yl)ethynyl)-N-((2-fluoropyridin-4-yl)methyl)-[2,4′-bipyrimidin]-2′-amine], the results for the dissociation constant Kd in test [1] (setting [3]) and in test [2] were 0.01 to 0.099 µM and 10 to 100 µM, respectively. Moreover, the “ROCK2 Selectivity” value in test [1] is on record as “*** (151 to 500-fold selectivity for ROCK2)”.

For `C[C@@H](O)CNc1nccc(-c2nccc(C#Cc3ccc4[nH]ncc4c3)n2)n1` [Ex. 79, (R)-1-((4-((1H-Indazol-5-yl)ethynyl)-[2,4′-bipyrimidin]-2′-yl)amino)propan-2-ol], in test [1], the Kd fell in the range of 0.01 to 0.099 µM and the “ROCK2 Selectivity” value is given as “** (50 to 150-fold selectivity for ROCK2)”. The dissociation constant (Kd) in test [2] is 1 to 9.9 µM.

As for `O=S1(=O)CC[C@H](Nc2nccc(-c3nccc(C#Cc4ccc5[nH]ncc5c4)n3)n2)C1` [Ex. 83, (S)-3-((4-((1H-Indazol-5-yl)ethynyl)-[2,4′-bipyrimidin]-2′-yl)amino)tetrahydrothiophene 1,1-dioxide], the figures for the Kd in test [1] (setting [3]) and in test [2] were < 0.01 µM and 0.1 to 0.99 µM, respectively. The “ROCK2 Selectivity” value in test [1] was “*** (151 to 500-fold selectivity for ROCK2)”.

For the compound `O=C(CNc1nccc(-c2nccc(C#Cc3ccc4[nH]nc(F)c4c3)n2)n1)N1CCOCC1` [Ex. 77, 2-((4-((3-Fluoro-1H-indazol-5-yl)ethynyl)-[2,4′-bipyrimidin]-2′-yl)amino)-1-morpholinoethanone], the dissociation constant Kd in test [1] (setting [3]) fell in the range of 0.01 to 0.099 µM; in test [2], 10 to 100 µM. Also, in test [1], the “ROCK2 Selectivity” value is on record as “*** (151 to 500-fold selectivity for ROCK2)”.

On to `C(#Cc1ccnc(-c2ccnc(NC[C@H]3CCOC3)n2)n1)c1ccc2[nH]ncc2c1` [Ex. 69, (R)-4-((1H-Indazol-5-yl)ethynyl)-N-((tetrahydrofuran-3-yl)methyl)-[2,4′-bipyrimidin]-2′-amine], for which the results for the Kd in test [1] (setting [3]) and in test [2] were < 0.01 µM and 1 to 9.9 µM, respectively. The “ROCK2 Selectivity” value in test [1] is on record as “*** (151 to 500-fold selectivity for ROCK2)”.

Consider `Fc1cnccc1CNc1nccc(-c2nccc(C#Cc3ccc4[nH]ncc4c3)n2)n1` [Ex. 31, 4-((1H-Indazol-5-yl)ethynyl)-N-((3-fluoropyridin-4-yl)methyl)-[2,4′-bipyrimidin]-2′-amine], for which the dissociation constant Kd was in the range of 0.01 to 0.099 µM in test [1] (setting [3]) and 1 to 9.9 µM in test [2]. Also, the “ROCK2 Selectivity” value in test [1] is on record as “** (50 to 150-fold selectivity for ROCK2)”.

Regarding `CS(=O)(=O)CCNc1nccc(-c2nccc(C#Cc3ccc4[nH]ncc4c3)n2)n1` [Ex. 56, 4-((1H-Indazol-5-yl)ethynyl)-N-(2-(methylsulfonyl)ethyl)-[2,4′-bipyrimidin]-2′-amine], the results for the Kd in test [1] (setting [3]) and in test [2] were < 0.01 µM and 1 to 9.9 µM, respectively. Besides, the “ROCK2 Selectivity” value in test [1] is listed as “**** (>500-fold selectivity for ROCK2)”.

`Fc1n[nH]c2ccc(C#Cc3ccnc(-c4ccnc(NCC5CCCO5)n4)n3)cc12` (stereo not drawn) [Ex. 50, 4-((3-Fluoro-1H-indazol-5-yl)ethynyl)-N-((tetrahydrofuran-2-yl)methyl)-[2,4′-bipyrimidin]-2′-amine]: the Kd in test [1] (setting [3]) is < 0.01 µM; in test [2], 1 to 9.9 µM. The “ROCK2 Selectivity” value in test [1] is on record as “*** (151 to 500-fold selectivity for ROCK2)”.

As for `C(#Cc1ccnc(-c2ccnc(NCC3CCCN3)n2)n1)c1ccc2[nH]ncc2c1` (stereo not drawn) [Ex. 5, 4-((1H-Indazol-5-yl)ethynyl)-N-(pyrrolidin-2-ylmethyl)-[2,4′-bipyrimidin]-2′-amine], the Kd in test [1] (setting [3]) was in the range of 0.01 to 0.099 µM; in test [2] it was 0.1 to 0.99 µM. In addition, the “ROCK2 Selectivity” value in test [1] is listed as “* (<50-fold selectivity for ROCK2)”.
